Reference: patent US20240285674A1, “USE OF SULFATE GLUCO-GALACTO-OLIGOSACCHARIDE IN PREPARATION OF ANTICOAGULANT AND/OR ANTITHROMBOTIC DRUG” (NANJING UNIVERSITY OF SCIENCE AND TECHNOLOGY, priority 2021, published 2024)
One block for each substance: values may come before it.

What was measured:
Coagulation factor FXa = Coagulation factor FXa (Homo sapiens, UniProt P00742); test: Inhibitory activity on coagulation factor FXa (chromogenic substrate CS-11(22)); type: biochemical; conditions: sample 1 mg/mL; for Inhibitory effect on coagulation factor FXa: incubated at 37° C. for 1 h
Coagulation factor FXa, sequence (P00742 235-488 limits assumed): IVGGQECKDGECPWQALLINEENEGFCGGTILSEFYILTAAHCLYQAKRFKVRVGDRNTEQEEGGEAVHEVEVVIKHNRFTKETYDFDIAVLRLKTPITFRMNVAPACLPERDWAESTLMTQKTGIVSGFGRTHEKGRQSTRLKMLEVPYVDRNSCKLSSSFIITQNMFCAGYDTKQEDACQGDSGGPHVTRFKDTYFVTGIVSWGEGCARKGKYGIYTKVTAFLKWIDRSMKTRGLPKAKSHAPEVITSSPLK
Coagulation factor FXa, sequence (P00742 41-179 limits assumed): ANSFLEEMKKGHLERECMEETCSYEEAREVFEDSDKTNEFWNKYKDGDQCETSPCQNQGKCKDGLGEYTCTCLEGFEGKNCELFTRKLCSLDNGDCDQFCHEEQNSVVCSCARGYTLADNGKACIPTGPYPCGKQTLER
Experimental: (§1) • a. 100 μL of FXa (5 nM) and 50 μL of the sulfate gluco-galacto-oligosaccharide sample (1 mg/mL) were mixed in a 96-well plate, incubated at 37° C. for 1 h, added with 50 μL of a substrate CS-11(22) (1.77 mM), and detected at a wavelength of 405 nm for 60 min, detecting once every minute. • b. 100 μL of HFXIa (human coagulation factor XIa, 1 nM) and 50 μL of the sulfate gluco-galacto-oligosaccharide sample (1 mg/mL) were mixed in a 96-well plate, incubated at 37° C. for 1 h, added with 50 μL of a substrate S2366 (1 mM), and detected at a wavelength of 405 nm for 60 min, detecting once every minute. • c. 100 μL of FXIIa (4 nM) and 50 μL of the sulfate gluco-galacto-oligosaccharide sample (1 mg/mL) were mixed in a 96-well plate, incubated 37° C. for 1 h, added with 50 μL of a substrate Pefachrome FXIIa/TH5253 (1 mM), and detected at a wavelength of 405 nm for 60 min, detecting once every minute. • d. 100 μL of Trypsin (8.3 nM) and 50 μL of the sulfate gluco-galacto-oligosaccharide sample (1 mg/mL) were mixed in a 96-well plate, incubated 37° C. for 1 h, added with 50 μL of a substrate CS-11(22) (1 mM), and detected at a wavelength of 405 nm for 60 min, detecting once every minute. • e. 100 μL of Thrombin (0.2 IU/mL) and 50 μL of the sulfate gluco-galacto-oligosaccharide sample (1 mg/mL) were mixed in a 96-well plate, incubated at 37° C. for 1 h, added with 50 μL of a substrate CS-01(38) (400 μM), and detected at a wavelength of 405 nm for 60 min, detecting once every minute. • f. 100 μL of Kallikrein (1 nM) and 50 μL of the sulfate gluco-galacto-oligosaccharide sample (1 mg/mL) were mixed in a 96-well plate, incubated 37° C. for 1 h, added with 50 μL of a substrate CS-31(02) (1 mM), and detected at a wavelength of 405 nm for 60 min, detecting once every minute.
(§2) Data processing was conducted using the software Graphpad Prism 6.0. Regression analysis was conducted with the reaction time as an abscissa and the absorbance value at 405 nm as an ordinate.
The calculated inhibition rate=(V0−V1)/V0×100%. […] The degree of sulfation of the sulfate gluco-galacto-oligosaccharide was controlled by controlling the ratio of gluco-galacto-oligosaccharide and sulfating reagent. […] It was seen that the more sulfate groups on average per sugar residue, the higher the inhibition rate of FXa by the sulfate gluco-galacto-oligosaccharide.

[1] = Tail tip bleeding time (bleeding risk); type: in vivo, C57/BL-6J mice; conditions: tail vein, mice; for cumulative bleeding time: 10 min after administration, capped at 20 min
Experimental: (§3) The experimental animals were male C57/BL-6J mice, weighing 18 g to 20 g. The mice were housed under standard experimental conditions with a 12-hour light-12-hour dark cycle with free access to water and food. The mice were anesthetized by intraperitoneal injection of 5% chloral hydrate, and administration of the drug was administered through the tail vein after confirming that the mice were completely anesthetized and had no eyelid reflex. The mice were randomly divided into three groups. A first group was a negative control group and was injected with physiological saline through the tail vein; a second group was a low-dose group, with 0.5 mg/mL sulfate gluco-galacto-oligosaccharide injected into the tail vein; and a third group was a high-dose group, with 1.0 mg/mL sulfate gluco-galacto-oligosaccharide injected into the tail vein.
10 min after administration, the mouse was placed stably with its tail in a naturally straightened state. The mouse tail was cut off 3 mm from the tip, and then immersed in a silanized tube filled with 37° C. physiological saline. Start timing from cutting off the tail tip, 20 min. the accumulated bleeding time t after cutting off the tail tip of the mouse was recorded with a stopwatch. If the bleeding time t was greater than 20 min, it was recorded as 20 min.
Data processing was conducted using the Graphpad Prism 6.0 software. A dot plot of sample concentration was made versus bleeding time. P<0.05 indicated a significant difference.
Bleeding time refers to a duration required from bleeding to natural hemostasis after capillary damage. In the negative control group (physiological saline group), the cumulative bleeding time was 10.35±5.48 min.

[2] = target: T1, HFXIa (human coagulation factor XIa) (Homo sapiens, UniProt P03951); test: Inhibitory activity on coagulation factor XIa (chromogenic substrate S2366); type: biochemical; conditions: sample 1 mg/mL, incubated at 37° C. for 1 h
T1 construct: HFXIa (human coagulation factor XIa, 1 nM)
T1 sequence (P03951 388-625 limits assumed): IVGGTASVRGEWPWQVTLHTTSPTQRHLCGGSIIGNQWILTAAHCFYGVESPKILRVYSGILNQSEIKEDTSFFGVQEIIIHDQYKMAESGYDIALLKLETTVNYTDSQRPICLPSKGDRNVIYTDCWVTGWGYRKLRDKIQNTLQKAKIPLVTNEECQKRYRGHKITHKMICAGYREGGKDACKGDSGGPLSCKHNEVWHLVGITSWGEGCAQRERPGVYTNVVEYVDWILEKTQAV
T1 sequence (P03951 19-387 limits assumed): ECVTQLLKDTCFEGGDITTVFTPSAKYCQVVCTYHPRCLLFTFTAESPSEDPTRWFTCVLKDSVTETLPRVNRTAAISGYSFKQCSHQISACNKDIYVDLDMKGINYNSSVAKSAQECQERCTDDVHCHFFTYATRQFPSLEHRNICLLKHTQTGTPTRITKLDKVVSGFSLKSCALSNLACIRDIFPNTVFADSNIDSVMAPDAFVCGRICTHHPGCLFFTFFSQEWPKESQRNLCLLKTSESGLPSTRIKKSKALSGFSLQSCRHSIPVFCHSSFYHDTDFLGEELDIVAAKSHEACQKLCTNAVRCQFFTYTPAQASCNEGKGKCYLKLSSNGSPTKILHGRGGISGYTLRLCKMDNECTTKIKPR
Experimental: as §1, with “100 μL of Thrombin (0.2 IU/mL) and 50 μL of the sulfate gluco-galacto-oligosaccharide sample (1 mg/mL) were mixed in a 96-well plate, incubated at 37° C. for 1 h, added with 50 μL of a substrate CS-01(38) (400 μM), and detected at a wavelength of 405 nm for 60 min, detecting once every minute. • f. 100 μL of Kallikrein (1 nM) and 50 μL of the sulfate gluco-galacto-oligosaccharide sample (1 mg/mL) were mixed in a 96-well plate, incubated 37° C. for 1 h, added with 50 μL of a substrate CS-31(02) (1 mM), and detected at a wavelength of 405 nm for 60 min, detecting once every minute.” left out
as §2

Coagulation factor FXIIa = target: T2, Coagulation factor FXIIa (Homo sapiens, UniProt P00748); test: Inhibitory activity on FXIIa (chromogenic substrate Pefachrome FXIIa/TH5253); type: biochemical; conditions: sample 1 mg/mL, incubated at 37° C. for 1 h
T2 sequence (P00748 373-615 limits assumed): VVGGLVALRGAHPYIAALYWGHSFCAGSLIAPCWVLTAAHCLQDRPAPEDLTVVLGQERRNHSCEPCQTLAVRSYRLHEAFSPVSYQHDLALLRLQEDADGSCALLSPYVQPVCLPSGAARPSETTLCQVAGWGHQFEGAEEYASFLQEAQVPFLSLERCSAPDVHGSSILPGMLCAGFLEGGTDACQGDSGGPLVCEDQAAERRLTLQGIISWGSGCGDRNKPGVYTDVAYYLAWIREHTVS
Experimental: as §1, with “100 μL of Thrombin (0.2 IU/mL) and 50 μL of the sulfate gluco-galacto-oligosaccharide sample (1 mg/mL) were mixed in a 96-well plate, incubated at 37° C. for 1 h, added with 50 μL of a substrate CS-01(38) (400 μM), and detected at a wavelength of 405 nm for 60 min, detecting once every minute. • f. 100 μL of Kallikrein (1 nM) and 50 μL of the sulfate gluco-galacto-oligosaccharide sample (1 mg/mL) were mixed in a 96-well plate, incubated 37° C. for 1 h, added with 50 μL of a substrate CS-31(02) (1 mM), and detected at a wavelength of 405 nm for 60 min, detecting once every minute.” left out
as §2

Trypsin = test: Inhibitory activity on trypsin (chromogenic substrate CS-11(22)); type: biochemical; conditions: sample 1 mg/mL, incubated at 37° C. for 1 h
Experimental: as §1, with “100 μL of Thrombin (0.2 IU/mL) and 50 μL of the sulfate gluco-galacto-oligosaccharide sample (1 mg/mL) were mixed in a 96-well plate, incubated at 37° C. for 1 h, added with 50 μL of a substrate CS-01(38) (400 μM), and detected at a wavelength of 405 nm for 60 min, detecting once every minute. • f. 100 μL of Kallikrein (1 nM) and 50 μL of the sulfate gluco-galacto-oligosaccharide sample (1 mg/mL) were mixed in a 96-well plate, incubated 37° C. for 1 h, added with 50 μL of a substrate CS-31(02) (1 mM), and detected at a wavelength of 405 nm for 60 min, detecting once every minute.” left out
as §2

Thrombin = target: T3, Thrombin (Homo sapiens, UniProt P00734); test: Inhibitory activity on thrombin (chromogenic substrate CS-01(38)); type: biochemical; conditions: sample 1 mg/mL, incubated at 37° C. for 1 h
T3 construct: 100 μL of Thrombin (0.2 IU/mL)
Experimental: as §1, with “100 μL of Thrombin (0.2 IU/mL) and 50 μL of the sulfate gluco-galacto-oligosaccharide sample (1 mg/mL) were mixed in a 96-well plate, incubated at 37° C. for 1 h, added with 50 μL of a substrate CS-01(38) (400 μM), and detected at a wavelength of 405 nm for 60 min, detecting once every minute. • f. 100 μL of Kallikrein (1 nM) and 50 μL of the sulfate gluco-galacto-oligosaccharide sample (1 mg/mL) were mixed in a 96-well plate, incubated 37° C. for 1 h, added with 50 μL of a substrate CS-31(02) (1 mM), and detected at a wavelength of 405 nm for 60 min, detecting once every minute.” left out
as §2

[3] = system: intrinsic coagulation pathway; test: Activated partial thromboplastin time (APTT) of plasma from mice after tail vein injection; type: in vivo, C57/BL-6J mice; conditions: 0.25, 0.5 and 1.0 mg/mL injected into the tail vein
Experimental: The experimental animals were male C57/BL-6J mice, weighing 18 g to 20 g. The mice were housed under standard experimental conditions with a 12-hour light-12-hour dark cycle with free access to water and food. The mice were anesthetized by intraperitoneal injection of 5% chloral hydrate, and administration of the drug was administered through the tail vein after confirming that the mice were completely anesthetized and had no eyelid reflex. The mice were randomly divided into four groups. […]
Activated partial thromboplastin time (APTT) is a duration required to observe plasma coagulation after adding an APTT reagent and calcium ions to the tested plasma. […] The APTT was measured according to the operating procedures in the kit instructions, and the fibrin formation time was read on the coagulometer. […]
The coagulation time of the physiological saline group was recorded as 1 times, and the multiples of APTT of the sulfate gluco-galacto-oligosaccharide samples with different concentrations relative to the physiological saline group were calculated.

[4] = system: ferric chloride-induced carotid artery thrombosis; test: Ferric chloride-induced carotid artery thrombosis model, blood vessel occlusion time; type: in vivo, C57/BL-6J mice; conditions: tail vein, mice
Experimental: as §3, with “vein. After tail vein administration, the mouse carotid arteries were dissected, and a filter paper piece (1 mm×2 mm) dipped in 6.0% ferric chloride solution was applied to the outer wall of the mouse carotid artery to allow induction for 3 min to construct a ferric chloride-induced carotid artery thrombosis model.” for “vein.”
The blood flow and thrombosis of the mouse carotid arteries were observed using a laser speckle flow imager, and the mouse carotid arteries were observed under the moorFLPI-2 lens for 15 min. The carotid arteries of the mice at the end of the observation were carefully dissected and stained with HE.
Charts were produced using GraphPad Prism 6.0 software, and statistical differences were analyzed using one-way analysis of variance and Dunnett's multiple comparisons. P<0.05 indicated a significant difference.
Blood vessel occlusion time refers to a duration from removal of the filter paper soaked in ferric chloride to the blood vessel occlusion. If no thrombosis was observed 15 min after removal of the ferric chloride filter paper, 15 min was considered as the vessel occlusion time. Combined with FIG. 3, in the negative control group (physiological saline group), the average blood vessel occlusion time was 4.5±0.23 min. […]

Kallikrein = Kallikrein (Homo sapiens, UniProt P03952); test: Inhibitory activity on kallikrein (chromogenic substrate CS-31(02)); type: biochemical; conditions: sample 1 mg/mL, incubated at 37° C. for 1 h
Kallikrein, sequence (P03952 391-638 limits assumed): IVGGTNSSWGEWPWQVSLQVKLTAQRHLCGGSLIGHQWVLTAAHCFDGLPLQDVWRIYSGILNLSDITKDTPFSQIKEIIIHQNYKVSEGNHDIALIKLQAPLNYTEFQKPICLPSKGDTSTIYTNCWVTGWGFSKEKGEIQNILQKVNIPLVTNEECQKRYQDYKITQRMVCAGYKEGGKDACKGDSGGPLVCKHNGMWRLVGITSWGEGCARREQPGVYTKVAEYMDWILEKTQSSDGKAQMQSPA
Kallikrein, sequence (P03952 20-390 partner limits assumed): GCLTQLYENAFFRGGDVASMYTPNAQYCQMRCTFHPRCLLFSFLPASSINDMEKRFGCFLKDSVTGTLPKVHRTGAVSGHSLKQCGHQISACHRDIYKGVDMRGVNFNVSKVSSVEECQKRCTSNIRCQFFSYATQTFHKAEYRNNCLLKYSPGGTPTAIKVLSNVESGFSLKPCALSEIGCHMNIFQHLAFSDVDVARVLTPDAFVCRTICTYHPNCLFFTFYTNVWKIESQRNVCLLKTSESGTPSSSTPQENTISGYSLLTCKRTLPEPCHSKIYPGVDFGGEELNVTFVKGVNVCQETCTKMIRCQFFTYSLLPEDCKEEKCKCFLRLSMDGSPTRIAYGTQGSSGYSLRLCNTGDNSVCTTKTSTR
Experimental: as §1, with “100 μL of Thrombin (0.2 IU/mL) and 50 μL of the sulfate gluco-galacto-oligosaccharide sample (1 mg/mL) were mixed in a 96-well plate, incubated at 37° C. for 1 h, added with 50 μL of a substrate CS-01(38) (400 μM), and detected at a wavelength of 405 nm for 60 min, detecting once every minute. • f. 100 μL of Kallikrein (1 nM) and 50 μL of the sulfate gluco-galacto-oligosaccharide sample (1 mg/mL) were mixed in a 96-well plate, incubated 37° C. for 1 h, added with 50 μL of a substrate CS-31(02) (1 mM), and detected at a wavelength of 405 nm for 60 min, detecting once every minute.” left out
as §2

Substance: sulfate gluco-galacto-oligosaccharide
- Difference of cumulative bleeding time from physiological saline group ([1]; 0.5 mg/mL and 1.0 mg/mL): no statistically significant difference
- cumulative bleeding time ([1]; 0.5 mg/mL): 11.88 ± 4.44 min
- cumulative bleeding time ([1]; 1.0 mg/mL): 11.60 ± 4.13 min
- Inhibitory effect on coagulation factor FXIa [2]: No inhibition
- Inhibitory effect on coagulation factor FXIIa (Coagulation factor FXIIa): No inhibition
- Inhibitory effect on Trypsin (Trypsin): No inhibition
- Inhibitory effect on Thrombin (Thrombin): No inhibition
- Inhibitory effect on coagulation factor FXa (Coagulation factor FXa): Inhibition
- Inhibition rate of FXa (Coagulation factor FXa; listed as sulfate gluco-galacto-oligosaccharide with averagely 1.65 sulfate groups per sug): 57.6%
- Effect on APTT (plasma coagulation time relative to physiological saline group) [3]: significant impact on APTT
- average blood vessel occlusion time ([4]; 0.5 mg/mL, observed 15 min): 5.4 ± 1.37 min
- Blood flow in carotid artery ([4]; 1.0 mg/mL): remained unchanged
- average blood vessel occlusion time ([4]; 1.0 mg/mL, 15 min recorded if no thrombosis within 15 min): 15 min
- Inhibitory effect on Kallikrein (Kallikrein): No inhibition

Substance: sulfate gluco-galacto-oligosaccharide [0.47]
- Inhibition rate of FXa (Coagulation factor FXa): 10.2%

Substance: sulfate gluco-galacto-oligosaccharide [1.23]
- Inhibition rate of FXa (Coagulation factor FXa): 39.2%

Next, values leading:

- Inhibitory effect on coagulation factor FXa (Coagulation factor FXa): no inhibitory activity
Substance: gluco-galacto-oligosaccharide [reference compound]

- Inhibition rate of FXa (Coagulation factor FXa): 65.5%
Substance: sulfate gluco-galacto-oligosaccharide [2.10]

- Inhibition rate of FXa (Coagulation factor FXa): 78.4%
Substance: sulfate gluco-galacto-oligosaccharide [2.52]
